Read-outs that look alike come from different tables or passages of the source.
What was measured:
[1] = DPPH radical scavenging; conditions: compound 0.1 mM
Protocol: (§1) S1 Antioxidant biological assay
The antioxidant activity of the compounds was evaluated via their ability to scavenge in
vitro free radicals such as DPPH and ABTS and to reduce H2O2. All the experiments were carried
S1.1 Determination of the reducing activity of the stable radical DPPH
To an ethanolic solution of DPPH (0.1 mM) an equal volume solution of the compounds
(0.1 mM) in ethanol was added. Absolute ethanol was also used as control solution. The absorbance
at 517 nm was recorded at room temperature after 30 and 60 min, in order to examine the possible
existence of a potential time–dependence of the DPPH radical scavenging activity [S1]. The DPPH–
scavenging activity of the compounds was expressed as the percentage reduction of the absorbance
values of the initial DPPH solution (DPPH%). NDGA and BHT were used as reference compounds. […]

[2] = ABTS radical cation scavenging; conditions: compound 0.1 mM
Protocol: as §1
(§2) The antioxidant activity of the compounds was evaluated via their ability to scavenge in […]
(§3) vitro free radicals such as DPPH and ABTS and to reduce H2O2. […]
S1.2 Assay of radical cation ABTS–scavenging activity
The ABTS assay was performed to determine the activity of the compounds to scavenge the […]
radical cation ABTS. Initially, a water solution of ABTS was prepared (2 mM). ABTS radical cation […]
(ABTS+·) was produced by the reaction of ABTS stock solution with potassium persulfate (0.17 […]
mM) and the mixture was stored in the dark at room temperature for 12–16 h before its use. The […]
ABTS was oxidized incompletely because the stoichiometric reaction ratio of ABTS and potassium […]
persulfate is 1:0.5. The absorbance became maximal and stable only after more than 6 h of reaction […]
although the oxidation of the ABTS started immediately. The radical was stable in this form for […]
more than 2 days when allowed to stand in the dark at room temperature. Afterwards, the ABTS+· […]
solution was diluted in ethanol to an absorbance of 0.70 at 734 nm and 10 μL of diluted compounds or standards (0.1 mM) in DMSO were added. The absorbance was recorded out exactly 1 min after […]
initial mixing [S1]. The ABTS radical scavenging activity was expressed as the percentage inhibition of the absorbance of the initial ABTS solution (ABTS%). […]

[3] = Reduction of hydrogen peroxide; conditions: compound 0.1 mM
Protocol: as §1, §2, §3
S1.3 Reduction of hydrogen peroxide
The ability of the compounds to reduce hydrogen peroxide (H2O2) was estimated according […]
to the method described in the literature [S2]. The reaction mixture contained 20 μL of each of the […]
tested compounds (0.1 mM) and 5 μL H 2O2 solution (40 mM) in phosphate buffer (50 mM, pH 7.4).
The absorbance was measured at 230 nm after 10 min. The antioxidant activity (reduction of […]

[4] = target: T1, HSA (Homo sapiens, UniProt P02768); test: Competitive HSA-fluorescence studies with warfarin and ibuprofen; type: binding
T1 construct: purchased Sigma-Aldrich Co

[5] = target: T2, BSA (Bos taurus, UniProt P02769); test: Competitive BSA-fluorescence studies with warfarin and ibuprofen; type: binding, bovine
T2 construct: purchased Sigma-Aldrich Co
Protocol: where n = the number of binding sites per albumin and K = the SA–binding constant. The K constant (M−1) is calculated from the slope in plots (ΔI/I0)/[Q] versus (ΔI/I0) and n is given by the ratio of y intercept to the slope [S9].
S4.2 Competitive SA–fluorescence studies with warfarin and ibuprofen
The competitive studies with warfarin or ibuprofen (site probes) [S10] were performed by tryptophan fluorescence quenching experiments using a fixed concentration of the BSA and site probes (3 μM) in buffer (containing 15 mM trisodium citrate and 150 mM NaCl at pH 7.0). The fluorescence emission spectra were recorded in the presence of increasing amounts of the compounds as quenchers with an excitation wavelength of 295 nm. The Scatchard equation (eq. 7) [S6] and plots were applied on the corrected SA–fluorescence emission spectra in order to determine the BSA–binding constant of the compounds in the presence of warfarin or ibuprofen.

[6] = tested on: EB-DNA adduct (CT DNA); test: EB-displacement from EB-DNA (fluorescence); type: binding, calf; conditions: for ΔΙ/Ι0 (%) EB-DNA fluorescence quenching: [EB] = 20 μM, [DNA] = 26 μM; for EB-DNA relative fluorescence emission intensity, % of the initial: λemission = 592 nm, final value; for kq (EB-DNA quenching constant): τo = 23 ns
Protocol: page 8: […] spectroscopy, viscosity measurements and fluorescence emission spectroscopy studies. […] UV-vis spectroscopy was used for the evaluation of the interaction of the compounds with CT DNA, and specifically the possible binding modes of the compounds to CT DNA. Control experiments with DMSO were performed and no changes in the spectra of CT DNA were observed. In order to determine the binding mode, the UV-vis spectra of the compounds were […] concentrations of CT DNA for diverse r (r = [complex]/[DNA]) values. Effective use of the changes […] compounds were calculated by the Wolfe-[…] equation (eq. […] εf) versus [DNA]: (eq. S1) where [DNA] = the concentration of DNA in base pairs, ε f= the extinction coefficient for the free compound at the corresponding λmax, εA = Aobsd/[compound] and εb= the extinction coefficient for the compound in the fully bound form. K b is given by the ratio of slope to the y intercept in plots [DNA]/(εA-εf) versus [DNA]. S3.2 CT DNA-binding studies by viscosity measurements […] presence of increasing amounts of the compounds. The experiments were executed at room temperature and the measurements are devised in a plot (η/η 0)1/3 versus r, where η = the viscosity of DNA in the presence of the compound, and η0 = the viscosity of neat DNA in buffer solution. […] In order to determine and confirm the DNA-binding mode of the compounds, a competitive study with EB as an intercalating marker is performed by fluorescence emission spectroscopy. Therefore, the EB-displacing ability of the compounds from its EB-DNA conjugate was examined. […] solution (150 mM NaCl and 15 mM trisodium citrate at pH 7.0). The potential intercalation of the compounds between the DNA-bases was studied by the addition of a certain amount of the 8 (1 picture or pasted object on this page, not shown here) page 9: compound solution into the EB-DNA adduct solution. The influence of the compounds on the EB- DNA solution was monitored through the changes of the fluorescence emission spectra at excitation wavelength (λex) at 540 nm [S6]. […] Bearing that in mind, the observed quenching of the EB-DNA solution is evidently associated to the displacement of EB from its EB-DNA adduct. The quenching efficiency (KSV) for each compound was assessed according to the Stern - Volmer equation (eq. S2) [S6]: (eq. S2) where I0 and I = the fluorescence emission intensities of EB-DNA in the absence and presence of the quencher, respectively, [Q] = the concentration of the quencher (i.e. compounds). K SV is obtained from the Stern-Volmer plots by the slope of the diagram I0/I versus [Q]. Taking τ0 = 23 ns […] M-1s-1) of the compounds can be determined according to e quation S3: KSV = kqτo (eq. S3) 9 (1 picture or pasted object on this page, not shown here)

T2 sequence (P02769 25-607): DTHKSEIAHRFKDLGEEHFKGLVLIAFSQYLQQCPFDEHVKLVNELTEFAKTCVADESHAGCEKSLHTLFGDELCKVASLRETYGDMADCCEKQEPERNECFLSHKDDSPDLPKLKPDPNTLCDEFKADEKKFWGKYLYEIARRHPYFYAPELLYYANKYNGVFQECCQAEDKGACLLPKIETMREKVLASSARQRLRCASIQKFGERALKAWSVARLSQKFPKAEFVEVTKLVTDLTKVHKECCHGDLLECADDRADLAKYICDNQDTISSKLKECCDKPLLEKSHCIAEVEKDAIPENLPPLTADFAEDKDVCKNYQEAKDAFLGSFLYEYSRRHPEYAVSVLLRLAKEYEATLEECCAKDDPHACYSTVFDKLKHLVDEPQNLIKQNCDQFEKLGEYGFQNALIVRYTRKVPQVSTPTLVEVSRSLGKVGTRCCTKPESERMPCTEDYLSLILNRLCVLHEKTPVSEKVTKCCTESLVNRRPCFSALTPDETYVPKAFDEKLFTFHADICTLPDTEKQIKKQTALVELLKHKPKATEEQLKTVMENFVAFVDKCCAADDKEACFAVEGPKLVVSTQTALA
T1 sequence (P02768 25-609): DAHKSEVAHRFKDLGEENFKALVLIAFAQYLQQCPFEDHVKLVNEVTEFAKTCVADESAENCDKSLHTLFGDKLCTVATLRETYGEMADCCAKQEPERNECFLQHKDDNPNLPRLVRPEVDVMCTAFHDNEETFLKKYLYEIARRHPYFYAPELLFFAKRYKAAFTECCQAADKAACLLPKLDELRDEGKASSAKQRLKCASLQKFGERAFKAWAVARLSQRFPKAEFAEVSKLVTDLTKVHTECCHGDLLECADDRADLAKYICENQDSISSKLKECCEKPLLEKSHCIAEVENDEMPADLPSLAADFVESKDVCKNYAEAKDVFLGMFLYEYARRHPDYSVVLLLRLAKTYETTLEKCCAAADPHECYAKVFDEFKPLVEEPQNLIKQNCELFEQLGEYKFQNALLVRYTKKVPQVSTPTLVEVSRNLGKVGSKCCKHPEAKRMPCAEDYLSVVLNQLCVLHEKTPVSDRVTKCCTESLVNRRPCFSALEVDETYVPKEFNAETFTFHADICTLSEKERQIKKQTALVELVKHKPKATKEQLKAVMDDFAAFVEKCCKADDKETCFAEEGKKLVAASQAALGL

Row | SMILES | DPPH% (30 min) [1] [%] | DPPH% (60 min) [1] [%] | ABTS% [2] [%] | H2O2% [3] [%] | HSA-binding constant K, Marker: Ibuprofen ([4]; ibuprofen) | HSA-binding constant K, No Marker [4] | HSA-binding constant K, Marker: Warfarin ([4]; warfarin) | BSA-binding constant K, Marker: Ibuprofen ([5]; ibuprofen 3 μM) | BSA-binding constant K, No Marker [5] | BSA-binding constant K, Marker: Warfarin ([5]; warfarin 3 μM) | KSV (Stern–Volmer constant), EB-DNA [6] | ΔΙ/Ι0 (%) EB-DNA fluorescence quenching [6] [%] | EB-DNA relative fluorescence emission intensity, % of the initial [6] [%] | kq (EB-DNA quenching constant) [6] | other results
1 | CCN(CC)c1ccc(C=O)c([O][Pd][O]c2cc(N(CC)CC)ccc2C=O)c1 [Complex 1, [Pd(4-Et2N-salo)2]] | 2.45 ± 0.09 | 4.00 ± 0.53 | 97.05 ± 0.48 | 18.19 ± 0.29 | 1.86 (±0.12) × 10^5 M^−1 | 1.25 (±0.06) × 10^5 M^−1 | 6.89 (±0.28) × 10^4 M^−1 | 8.94 (±0.63) × 10^4 M^−1 | 1.08 (±0.06) × 10^5 M^−1 | 9.34 (±0.60) × 10^4 M^−1 | 1.03 (±0.02) × 10^5 M^−1 | 51.2 | 48.8 | 4.49 (±0.09) × 10^12 M^−1s^−1 | 
2 | O=Cc1cc(Br)cc(Br)c1[O][Pd][O]c1c(Br)cc(Br)cc1C=O [Complex 2, [Pd(3,5-diBr-salo)2]] | 7.99 ± 0.24 | 14.63 ± 0.53 | 50.46 ± 0.91 | 49.21 ± 0.32 | 3.23 (±0.13) × 10^5 M^−1 | 4.12 (±0.15) × 10^5 M^−1 | 1.43 (±0.09) × 10^5 M^−1 | 1.05 (±0.09) × 10^5 M^−1 | 1.50 (±0.06) × 10^6 M^−1 | 9.64 (±0.70) × 10^4 M^−1 | 1.00 (±0.02) × 10^5 M^−1 | 64.8 | 35.2 | 4.35 (±0.10) × 10^12 M^−1s^−1 | 
3 | COc1ccc(C=O)c(O)c1 [4-OMe-saloH, 4-methoxy-salicylaldehyde, reference compound] | 4.16 ± 0.10 | 6.27 ± 0.25 | 40.83 ± 0.44 | 94.24 ± 0.67 |  |  |  |  |  |  |  |  |  |  | Kd [4]: 10.3 µM; Kd ([4]; read-out: HSA-binding constant K, Marker: Ibuprofen, ibuprofen): 21.3 µM; Kd ([4]; read-out: HSA-binding constant K, Marker: Warfarin, warfarin): 60.2 µM; Kd [5]: 2.43 µM; Kd ([5]; read-out: BSA-binding constant K, Marker: Ibuprofen, ibuprofen 3 μM): 12.7 µM; Kd ([5]; read-out: BSA-binding constant K, Marker: Warfarin, warfarin 3 μM): 68.5 µM
4 | O=Cc1cc(F)ccc1[O-].O=Cc1cc(F)ccc1[O-].[Pd+2] [Complex 4, [Pd(5-F-salo)2]] | 14.82 ± 0.45 | 13.61 ± 0.48 | 63.30 ± 0.53 | 48.31 ± 0.67 | 1.10 (±0.08) × 10^5 M^−1 | 1.38 (±0.05) × 10^5 M^−1 | 8.98 (±0.82) × 10^4 M^−1 | 9.27 (±0.48) × 10^4 M^−1 | 8.79 (±0.13) × 10^4 M^−1 | 6.05 (±0.27) × 10^4 M^−1 | 5.71 (±0.10) × 10^4 M^−1 | 51.4 | 48.6 | 2.48 (±0.04) × 10^12 M^−1s^−1 | BSA drug site preference ([5]; drug site I (warfarin) vs II (ibuprofen)): drug site I
